Assay results as given in the NIST ThermoML archive (doi:10.1016/j.jct.2013.05.047).
Values joined by “and” are separate entries in the source; they are usually repeats but may differ in a detail not shown here. Equal values may be shown once.

Assays:
[1] = for vapor or sublimation pressure: Closed cell (Static) method; for Normal melting temperature: DTA
[2] = Molar enthalpy of transition or fusion; settings: Crystal; DSC

Oc1ccc(Br)cc1 [4-bromophenol]
vapor or sublimation pressure, [1]
Settings	Crystal	Liquid
285.34 K	0.00035 kPa	–
287.33 K	0.00046 kPa	–
289.29 K	0.00057 kPa	–
291.33 K	0.00073 kPa	–
293.31 K	0.00092 kPa	–
295.29 K	0.00116 kPa	–
297.25 K	0.00146 kPa	–
299.23 K	0.00182 kPa	–
301.2 K	0.00229 kPa	–
303.18 K	0.00286 kPa	–
303.2 K	–	0.00555 kPa
305.19 K	0.00358 kPa	–
305.2 K	–	0.00661 kPa
307.17 K	0.00441 kPa	–
307.18 K	–	0.00784 kPa
309.12 K	0.00541 kPa and 0.0054 kPa	–
309.17 K	–	0.00932 kPa
311.05 K	0.00664 kPa	–
311.16 K	–	0.01099 kPa
313.09 K	0.00818 kPa	–
313.12 K	–	0.01288 kPa
315.08 K	0.01002 kPa	–
315.09 K	–	0.01516 kPa
316.89 K	–	0.01755 kPa
317.09 K	0.01219 kPa	–
318.6 K	–	0.02013 kPa
319.01 K	0.01482 kPa	–
320.72 K	–	0.02383 kPa
320.99 K	0.01805 kPa	–
323.03 K	0.02185 kPa	0.02842 kPa
324.98 K	0.02644 kPa	–
325.02 K	–	0.03304 kPa
326.97 K	0.03198 kPa	0.03827 kPa
328.93 K	0.03838 kPa	–
328.95 K	–	0.04429 kPa
330.89 K	–	0.05121 kPa
330.93 K	0.0461 kPa	–
332.9 K	–	0.05904 kPa
334.9 K	–	0.06804 kPa
336.81 K	–	0.07806 kPa
338.78 K	–	0.0882 kPa
340.82 K	–	0.1022 kPa
342.8 K	–	0.1163 kPa
344.73 K	–	0.132 kPa
346.82 K	–	0.1517 kPa
348.66 K	–	0.1712 kPa
350.78 K	–	0.1945 kPa
352.64 K	–	0.2188 kPa
354.73 K	–	0.2475 kPa
356.58 K	–	0.2774 kPa
358.68 K	–	0.3129 kPa
360.5 K	–	0.3497 kPa
362.61 K	–	0.3938 kPa
364.5 K	–	0.4391 kPa
366.58 K	–	0.4925 kPa
368.3 K	–	0.549 kPa
370.51 K	–	0.6102 kPa

Settings	Molar enthalpy of transition or fusion [kcal/mol]
[2]	4.04

Oc1ccc(Cl)cc1 [4-chlorophenol]
vapor or sublimation pressure [kPa], [1]
Settings	Crystal	Liquid
273.48 K	–	0.00084
273.5 K	0.00039	–
275.43 K	0.00049	–
275.44 K	–	0.00104
277.42 K	0.00063	0.00128
279.38 K	0.00081	0.00158
281.38 K	0.00103	0.00192
283.35 K	0.0013	–
283.37 K	–	0.00234
285.33 K	–	0.00286
285.35 K	0.00166	–
287.31 K	0.00208	–
287.32 K	–	0.00345
289.31 K	0.00262	0.00418
291.28 K	–	0.00507
291.31 K	0.00327	–
293.28 K	0.00406	0.00606
295.27 K	0.00505	–
295.32 K	–	0.00733
297.25 K	–	0.00872
297.26 K	0.00624	–
299.21 K	0.00766	–
299.23 K	–	0.01048
301.2 K	–	0.01241
301.23 K	0.00951	–
303.19 K	–	0.01472
303.2 K	0.01166	–
305.18 K	0.01436	0.01741
307.16 K	0.01755	–
307.18 K	–	0.02059
309.14 K	0.02132	0.02426
311.11 K	–	0.02854
311.14 K	0.02603	–
313.12 K	–	0.03332
315.06 K	–	0.03907
317.07 K	–	0.04539
319.03 K	–	0.05279
321.14 K	–	0.06178
323.09 K	–	0.07108
325.09 K	–	0.08208
327.04 K	–	0.09417
329.04 K	–	0.1088
331.02 K	–	0.1249

Settings	Normal melting temperature [°C]
[1], Crystal	43.8

Settings	Molar enthalpy of transition or fusion [kcal/mol]
[2]	3.35

Oc1ccc(F)cc1 [4-fluorophenol]
vapor or sublimation pressure [kPa], [1]
Settings	Crystal	Liquid
265.62 K	0.00084	–
267.58 K	0.00108	–
269.54 K	0.00137	–
271.5 K	0.00174	–
273.49 K	0.00222	–
275.43 K	0.00279	–
277.43 K	0.00353	–
279.39 K	0.00443	–
281.38 K	0.00555	–
283.36 K	0.00696	–
285.33 K	0.00863	–
287.34 K	0.01071	–
289.29 K	0.01329	–
291.3 K	0.01648	–
291.39 K	–	0.02895
293.29 K	0.02028	–
293.35 K	–	0.03339
295.26 K	0.02476	–
295.34 K	–	0.0394
297.24 K	0.03044	–
297.32 K	–	0.04637
299.25 K	0.03741	0.05448
301.19 K	0.04503	–
301.24 K	–	0.06387
303.21 K	0.05518	–
303.22 K	–	0.07471
305.19 K	0.06658	–
305.24 K	–	0.08751
307.18 K	0.08105	–
307.21 K	–	0.1019
309.16 K	0.09599	–
309.2 K	–	0.1187
311.12 K	0.1152	–
311.17 K	–	0.1369
313.11 K	0.1383	–
313.15 K	–	0.1588
315.06 K	–	0.1811
315.1 K	0.1647	–
317.01 K	–	0.2084
317.07 K	0.197	–
319.02 K	–	0.2365
321.01 K	–	0.2738
323.1 K	–	0.3152
325.09 K	–	0.3611
327.06 K	–	0.4129
329.05 K	–	0.4644
331.02 K	–	0.5332
333.01 K	–	0.5995
335 K	–	0.6828
336.96 K	–	0.7646
338.93 K	–	0.8651
340.78 K	–	0.9558
342.84 K	–	1.084

Settings	Normal melting temperature [°C]
[1], Crystal	47.2

Settings	Molar enthalpy of transition or fusion [kcal/mol]
[2]	3.47

Oc1ccc(I)cc1 [4-iodophenol]
vapor or sublimation pressure [kPa], [1]
Settings	Crystal	Liquid
307.15 K	0.00064	–
309.13 K	0.00079	–
311.09 K	0.00098	–
313.1 K	0.00123	–
315.1 K	0.00152	–
317.05 K	0.00189	–
319.1 K	0.00236	–
321.01 K	0.00288	–
323.01 K	0.00353	–
325.06 K	0.00436	–
326.95 K	0.00527	–
329.02 K	0.00647	–
330.91 K	0.00781	–
332.98 K	0.00956	–
334.88 K	0.01147	–
336.93 K	–	0.02432
336.95 K	0.01399	–
338.83 K	0.01662	–
338.84 K	–	0.02795
340.71 K	–	0.03222
340.9 K	0.02012	–
342.72 K	–	0.03713
342.79 K	0.02397	–
344.73 K	–	0.04253
344.86 K	0.02883	–
346.71 K	0.03411	–
346.73 K	–	0.04894
348.71 K	–	0.05593
348.82 K	0.04092	–
350.67 K	0.0482	–
350.69 K	–	0.06373
352.67 K	–	0.07262
352.76 K	0.05731	–
354.59 K	0.06713	–
354.62 K	–	0.08281
356.58 K	–	0.09387
356.72 K	0.07984	–
358.58 K	0.09351	0.1065
360.56 K	–	0.1204
360.65 K	0.1108	–
362.52 K	–	0.1359
364.52 K	–	0.1533
366.46 K	–	0.1729
368.57 K	–	0.1961
370.44 K	–	0.2178
372.51 K	–	0.2463
374.38 K	–	0.2725
376.46 K	–	0.3075
378.32 K	–	0.3409
380.41 K	–	0.382

Settings	Normal melting temperature [°C]
[1], Crystal	92.7

Settings	Molar enthalpy of transition or fusion [kcal/mol]
[2]	4.97
